# Tested on: EAE induced in the CSJL/FI strain of mice
# Assay: EAE model in CSJL/FI mice (MSCH/CFA-induced), clinical scoring
# Type: in vivo
# Protocol: EAE induced in the CSJL/FI strain of mice was selected to test the compounds mentioned above, as it is an established EAE model to test the efficacy of candidate molecules for MS treatment.
# Disease was induced in all mice by the injection of the encephalitogenic emulsion (MSCH/CFA). Treatment was started from day 1 of the study or at disease onset and was administered every day, orally (BID), from onset of the study.
# Healthy, nulliparous, non-pregnant female mice of the CSJL/FI strain obtained from Harlan Animal Breeding Center, Jerusalem, Israel were used in the study. The animals weighed about 17-20 g on arrival, and were approximately 9 weeks of age at initiation of the study. Overtly healthy animals were assigned to study groups arbitrarily before treatment commenced.
# The mice were allocated to the following 8 groups of 10 mice each:
# Treatments in all groups were administered orally.
# The emulsion was made from equal parts of oil (4 mL CFA containing 1.0 mg/ml MT) and liquid portions ([…] MSCH/2.5 mL PBS) in two syringes connected to each other with a Leur lock. The concentration of MSCH in emulsion is 40 mg/mL.
# The emulsion was transferred to an insulin syringe before injection. 0.05 ml was injected into the left foot-pad of each mouse.
# 104 μL Pertussis toxin (200 μg/ml) was added to 25.87 ml PBS to yield 800 ng/ml. The pertussis toxin was administered intravenously on the day of the encephalitogen injection and 48 hours later (160.0 ng/0.2 ml/mouse×2=320 ng/mouse).
# Laquinimod was diluted in DDW water to yield 0.1 mg/ml. The solution was stored in an amber colored bottle at 2 to 8° C. The 0.1 mg/ml laquinimod was administered orally, once, daily from the initiation of the study until study termination (Day 23).
# Compounds B and C were dissolved in 5% Dextrose to concentrations of 2.5, 5.0 and 10 mg/ml for dose levels of 25, 50 and 100 mg/kg respectively. Test samples were freshly prepared. The 2.5, 5.0 and 10 mg/ml concentrations of Compounds B and C were administered orally, twice daily (BID) from initiation of study until study termination (Day 23) to groups
# Scoring of EAE clinical signs were initiated from the 10th day post-EAE induction and were continued daily. The clinical signs were recorded on observation cards according to a grading system described in the table below.
# All mice having scores of 1 and above were considered sick.
# Animals with a score of 4 for more than two days were given a score of 5 and sacrificed for humane reasons. For calculation purposes, the score (5) of animals that are sacrificed or died will be carried forward (LOCF).
# The number of sick animals in each group was summed.
# The incidence of disease was calculated as
# The percent inhibition according to incidence was calculated as: […]
# The number of dead or moribund animals in each group was summed.
# The mortality of disease was calculated as
# The percent inhibition according to mortality was calculated as
# The mean delay in onset of disease expressed in days is calculated by subtracting the mean onset of disease in control group from test group.
# The mean maximal score (MMS) of each group was calculated as
# The percent inhibition according to MMS was calculated as
# The daily scores of each mouse in the test group was summed and the individual mean daily score (IMS) was calculated as
# The mean group score (GMS) was calculated as
# The percent inhibition was calculated as
# This example was performed in the same manner as example 3 with the following groups:
# Compound A was prepared for administration by mixing in 0.5% methyl cellulose (0.5% MC) to concentrations of 2.5, 5.0 and 10 mg/ml for dose levels of 25, 50 and 100 mg/kg respectively. The samples were vortexed and sonicated until a clear solution was obtained.
# The 2.5, 5.0 and 10 mg/ml concentrations of Compound A were administered orally, twice daily (BID) from initiation of study until study termination (Day 23) at a volume dose of 0.2 ml/mouse.
# Compound B was prepared for administration as in Example 3. […]
# [1] = Example 3, all dose levels (25, 50, 100 mg/kg BID oral) in 5% dextrose
# [2] = Example 3, 1 mg/kg QD oral, Day 0 to 22, percent inhibition vs 5% dextrose negative control
smiles,measurement,setting,value
"C#CCN1CCN(c2nc3ccc(OC(F)(F)F)cc3s2)CC1 [Compound A, 2-(4-(prop-2-ynyl)piperazin-1-yl)-6-(trifluoromethoxy)benzo[d]thiazole]",protection from disease onset and severity (in words),"Example 4, 25, 50 and 100 mg/kg BID oral in 0.5% methyl cellulose, all doses tested",almost complete protection
same,efficacy compared with Compound B,"Example 4, Compound A 25-100 mg/kg BID vs Compound B 15-25 mg/kg BID, oral",better than Compound B
"C#CCNCc1nc2ccc(OC(F)(F)F)cc2s1 [Compound B, N-((6-(trifluoromethoxy)benzo[d]thiazol-2-yl)methyl)prop-2-yn-1-amine]",mortality,"Example 3, 25 mg/kg BID oral",no mortality
same,activity based on GMS (EAE inhibition),"Example 3, 25 mg/kg BID oral in 5% dextrose, Day 0 to 22",55.9%
same,activity based on GMS (EAE inhibition),"Example 3, 100 mg/kg BID oral in 5% dextrose, Day 0 to 22",56.4%
same,activity in EAE (in words),[1],some activity
same,activity in EAE (in words),"Example 4, 15 and 25 mg/kg BID oral, Day 0 to 22",moderate activity
"CCN(C(=O)c1c(O)c2c(Cl)cccc2n(C)c1=O)c1ccccc1 [laquinimod, reference compound]",activity according to GMS (group mean score),[2],96.7%
same,activity according to MMS (mean maximal score),[2],93.5%
same,activity according to incidence,[2],80%
"C#CCN(C)Cc1nc2ccc(OC(F)(F)F)cc2s1 [Compound C, N-methyl-N-((6-(trifluoromethoxy)benzo[d]thiazol-2-yl)methyl)prop-2-yn-1-amine]",activity in EAE (in words),[1],some activity

# Source: patent US8759382B2, “Propargyl-trifluoromethoxy-aminobenzothiazole derivatives, their preparation and use” (Teva Pharmaceutical Industries Ltd., priority 2010, dated 2014)
